Data from patent US4906657A, “Bicyclo heptane and bicyclo octane substituted inhibitors of cholesterol synthesis” (Warner-Lambert Company, priority 1988, dated 1990).

Test system: biosynthesis of cholesterol (rat liver homogenate)
Assay: CSI screen (inhibition of sterol synthesis; incorporation of 14C-acetate into non-saponifiable lipid by rat liver homogenate)
Format: biochemical
Details: 50% inhibition of sterol synthesis over a one-hour period
Procedure: The ability of compounds of the present invention to inhibit the biosynthesis of cholesterol was measured by a method (designated CSI screen) which utilizes the procedure described by R. E. Dugan, et al, Archiv. Biochem. Biophys., (1972), 152, 21-27. In this method, the level of HMG-CoA enzyme activity in standard laboratory rats is increased by feeding the rats a chow diet containing 5% cholestryramine for four days, after which the rats are sacrificed.
The rat livers are homogenized, and the incorporation of […] into non-saponifiable lipid by the rat liver homogenate is measured. The micromolar concentration of compound required for 50% inhibition of sterol synthesis over a one-hour period is measured, and expressed as an IC50 value.

| Structure (SMILES) | IC50 |
| --- | --- |
| C=C1CC2(C)CC1C(c1ccccc1)=C2C=CC1CC(O)CC(=O)O1 (centres unmarked) | 0.44 µM |
| C=C1CC2(C)CC1C(c1ccccc1)=C2/C=C/[C@@H](O)C[C@@H](O)CC(=O)OCC (relative stereo) | 0.44 µM |
